The source made the active and inactive calls. The calls are words filed in the database; no cut-off is given here.
Tests used:
[1] = test system: Bacillus cereus; assay: Antibacterial activity against Bacillus cereus ATCC 14579 assessed as growth inhibition at 2 mg/ml after 24 hrs by disc agar diffusion method; format: functional; conditions: for zone of inhibition at 2000 µg/mL: ATCC 14579, 24 h, read-out: DIZ
[2] = test system: Staphylococcus aureus; assay: Antibacterial activity against Staphylococcus aureus ATCC 25923 assessed as growth inhibition at 2 mg/ml after 24 hrs by disc agar diffusion method; format: functional; conditions: for zone of inhibition at 2000 µg/mL: ATCC 25923, 24 h, read-out: DIZ
[3] = test system: Escherichia coli; assay: Antibacterial activity against Escherichia coli ATCC 35218 assessed as growth inhibition at 2 mg/ml after 24 hrs by disc agar diffusion method; format: functional; conditions: for zone of inhibition at 2000 µg/mL: ATCC 35218, 24 h, read-out: DIZ
[4] = test system: Pseudomonas aeruginosa; assay: Antibacterial activity against Pseudomonas aeruginosa ATCC 27853 assessed as growth inhibition at 2 mg/ml after 24 hrs by disc agar diffusion method; format: functional; conditions: for zone of inhibition at 2000 µg/mL: ATCC 27853, 24 h, read-out: DIZ
[5] = test system: PC-3; assay: Cytotoxicity against human PC3 cells assessed as growth inhibition after 72 hrs by MTT assay; format: functional, cell-based; conditions: PC-3, 72 h
[6] = test system: MCF7; assay: Cytotoxicity against human MCF7 cells assessed as growth inhibition after 72 hrs by MTT assay; format: functional, cell-based; conditions: MCF7, 72 h
[7] = test system: Leishmania mexicana; assay: Antileishmanial activity against promastigote stage of Leishmania mexicana Bel21 assessed as growth inhibition after 48 hrs by MTT assay; format: functional, organism-based; conditions: Bel21, 48 h
[8] = test system: Trypanosoma cruzi; assay: Antitrypanosomal activity against epimastigote stage of Trypanosoma cruzi CL Brener assessed as growth inhibition after 5 days by MTT assay; format: functional; conditions: 120 h
[9] = Cytotoxicity against human skin fibroblasts assessed as growth inhibition after 72 hrs by MTT assay; conditions: Skin fibroblast
[10] = test system: PC-3; assay: Selectivity index, ratio of IC50 for human skin fibroblasts to IC50 for human PC3 cells
[11] = test system: MCF7; assay: Selectivity index, ratio of IC50 for human skin fibroblasts to IC50 for human MCF7 cells
[12] = Selectivity index, ratio of IC50 for human skin fibroblasts to IC50 for promastigote stage of Leishmania mexicana Bel21
[13] = Selectivity index, ratio of IC50 for human skin fibroblasts to IC50 for epimastigote stage of Trypanosoma cruzi CL Brener

SMILES	growth inhibition (GI) [1]	growth inhibition (GI) [2]	growth inhibition (GI) [3]	growth inhibition (GI) [4]	IC50 [5]	IC50 [6]	IC50 [7]	IC50 [8]	IC50 [9]	Ratio IC50 [10]	Ratio IC50 [11]	Ratio IC50 [12]	Ratio IC50 [13]	zone of inhibition at 2000 µg/mL [1]	zone of inhibition at 2000 µg/mL [2]	zone of inhibition at 2000 µg/mL [3]	zone of inhibition at 2000 µg/mL [4]
C=C(C)[C@H]1CC[C@@]23C[C@H](CC[C@H]2[C@]1(C)CCC(=O)OC)C(CC(C#N)P(=O)(OCC)OCC)C3=O (stereo partly drawn)	inactive	inactive	inactive	inactive													
C=C1C(=O)[C@@]23CC[C@H](C(=C)C)[C@@](C)(CCC(=O)NC4CCCCC4)[C@@H]2CC[C@H]1C3					3.9 µM	10 µM	2 µM	2.8 µM	12 µM	3.1	1.2	6	4.3	15 mm	15 mm	16 mm	12 mm
C=C(C)[C@H]1CC[C@@]23C[C@H](CC[C@H]2[C@]1(C)CCC(=O)O)C(C)C3=O (stereo partly drawn)		inactive	inactive			110 µM	> 47 µM		> 157 µM		>1.4			20 mm			18 mm
C=C(C)[C@H]1CC[C@@]23C[C@H](CC[C@H]2[C@]1(C)CCC(=O)O)C(CC#N)C3=O (stereo partly drawn)	inactive	inactive	inactive	inactive	> 138 µM	144 µM	> 44 µM		51.9 µM		0.5	<1.2					
C=C(C)[C@H]1CC[C@@]23C[C@H](CC[C@H]2[C@]1(C)CCC(=O)O)C(COCC)C3=O (stereo partly drawn)														10 mm	12 mm	14 mm	15 mm
C=C1C(=O)[C@@]23CC[C@H](C4(C)CO4)[C@@](C)(CCC(=O)O)[C@@H]2CC[C@H]1C3 (stereo partly drawn)					6.4 µM	22.6 µM			24.7 µM	3.9	1.1			20 mm	25 mm	18 mm	18 mm
C=C1C(=O)[C@@]23CC[C@H](C(=C)C)[C@@](C)(CCC(=O)OCCCC)[C@@H]2CC[C@H]1C3	inactive	inactive	inactive	inactive	4.7 µM	5.6 µM	1.2 µM	4.2 µM	7 µM	1.5	1.3	5.8	1.7				
C=C1C(=O)[C@@]23CC[C@H](C(=C)C)[C@@](C)(CCC(=O)OC4CCCCC4)[C@@H]2CC[C@H]1C3					1.9 µM	2.1 µM	1.2 µM	5.5 µM	< 3.9 µM	2.1	1.9	<3.3	<0.7	12 mm	30 mm	28 mm	30 mm
C=C1C(O)[C@@]23CC[C@H](C(=C)C)[C@@](C)(CCC(=O)O)[C@@H]2CC[C@H]1C3 (stereo partly drawn)					137 µM	86.8 µM	> 30 µM		207 µM	1.5	2.4	<6.9		15 mm	12 mm	12 mm	20 mm
C=C1C(=O)[C@@]23CC[C@H](C(C)(O)CO)[C@@](C)(CCC(=O)O)[C@@H]2CC[C@H]1C3 (stereo partly drawn)		inactive		inactive	21.9 µM	46.3 µM	42.8 µM	42.6 µM	25.4 µM	1.2	0.5	0.6	0.6	20 mm		15 mm	
C=C1C(=O)[C@@]23CC[C@H](C(=C)C)[C@@](C)(CCC(=O)OCc4ccccc4)[C@@H]2CC[C@H]1C3					5.5 µM	3.7 µM	1 µM	4.1 µM	3.1 µM	0.6	0.8	3.1	0.8	24 mm	15 mm	22 mm	15 mm
C=C1C(=O)[C@@]23CC[C@H](C(=C)C)[C@@](C)(CCC(=O)OC)[C@@H]2CC[C@H]1C3					3.6 µM	11.2 µM	3.4 µM	16.5 µM	11.3 µM	3.1	1	3.3	0.7	22 mm	12 mm	15 mm	15 mm
C=C1C(=O)[C@@]23CC[C@H](C(=C)C)[C@@](C)(CCC(=O)OCCC)[C@@H]2CC[C@H]1C3			inactive	inactive	4.2 µM	6.6 µM	1.5 µM	3.1 µM	6.2 µM	1.5	0.9	4.1	2	20 mm	12 mm		
C=C1C(=O)[C@@]23CC[C@H](C(=C)C)[C@@](C)(CCC(=O)OC(C)C)[C@@H]2CC[C@H]1C3	inactive		inactive		5.4 µM	5.4 µM	1.5 µM	4.1 µM	7.5 µM	1.4	1.4	5	1.8		15 mm		15 mm
C=C(C)[C@H]1CC[C@@]23C[C@H](CC[C@H]2[C@]1(C)CCC(=O)O)C(CSCc1ccccc1)C3=O (stereo partly drawn)							22.1 µM	39.3 µM	42.7 µM			1.9	1.1	20 mm	22 mm	25 mm	15 mm
C=C(C)[C@H]1CC[C@@]23C[C@H](CC[C@H]2[C@]1(C)CCC(=O)OC)C(COC)C3=O (stereo partly drawn)														12 mm	13 mm	15 mm	15 mm
